Results taken from US20230085307A1, “PYRIDAZINONE COMPOUND AND HERBICIDE” (NISSAN CHEMICAL CORPORATION, priority 2019, published 2023).

Assays:
chickweed [1] = assay: Test Example 5: herbicidal effect by foliage application, plastic box (Table 20, symbol P); format: in vivo, common chickweed (Stellaria media); conditions: foliage application, 320 g/ha, evaluated three weeks after application
Method in brief: (§1)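 Plants were sown into sterilized diluvial soil under about 1.5 cm cover and kept in a greenhouse at 25° C. to 30° C. Fourteen days on, foliage received an even spray of the diluted emulsion. Herbicidal or crop effect was judged three weeks afterwards.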

rice flat sedge = assay: Test Example 3: herbicidal effect by foliage application, Wagner pot (Table 18, symbol E); format: in vivo, rice flat sedge (Cyperus iria); conditions: 320 g/ha
Method in brief: (§2)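 Plants were sown in alluvial soil held under 0.1–0.5 cm standing water and grown 14 days in a greenhouse at 25–30 °C. An emulsifiable formulation, water-diluted to the set dose, was then sprayed onto the foliage, and effects were scored three weeks later using previously defined criteria.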

blackgrass [2] = assay: Test Example 5: herbicidal effect by foliage application, plastic box (Table 20, symbol J); format: in vivo, blackgrass (Alopecurus myosuroides); conditions: foliage application, 320 g/ha, evaluated three weeks after application
Method in brief: as §1

redroot pigweed [3] = assay: Test Example 5: herbicidal effect by foliage application, plastic box (Table 20, symbol N); format: in vivo, redroot pigweed (Amaranthus retroflexus); conditions: foliage application, 320 g/ha, evaluated three weeks after application
Method in brief: as §1

false cleavers [4] = assay: Test Example 4: herbicidal effect by soil treatment (Table 19, symbol Q); format: in vivo, false cleavers (Galium spurium); conditions: amount of applied herbicide 320 g/ha
Method in brief: (§3)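 Pre-emergence style soil spray: seeds under ~1.5 cm sterilized diluvial soil received a uniform coat of emulsion diluted to the predetermined herbicide amount. Greenhouse 25–30° C; readout at week three on previously defined criteria.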

barnyard grass [5] = assay: Test Example 4: herbicidal effect by soil treatment (Table 19, symbol H); format: in vivo, barnyard grass (Echinochloa crus-galli); conditions: amount of applied herbicide 320 g/ha
Method in brief: as §3

persian speedwell [6] = assay: Test Example 5: herbicidal effect by foliage application, plastic box (Table 20, symbol R); format: in vivo, Persian speedwell (Veronica persica); conditions: foliage application, 320 g/ha, evaluated three weeks after application
Method in brief: as §1

oval-leafed pondweed = assay: Test Example 2: herbicidal activity, application during weed generation under submerged conditions (Table 17, symbol C); format: in vivo, oval-leafed pondweed (Monochoria vaginalis); conditions: AAH 320 g/ha; application during weed generation, submerged conditions
Method in brief: (§4)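 In this pot test, flooded alluvial soil (water depth 4 cm) holds all three species sown as a mixture. Once seedlings have one to two leaves, the compound's emulsion, thinned with water to the intended dose, is poured on the water; grading follows after three weeks on the earlier criteria.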

lambsquarters [7] = assay: Test Example 4: herbicidal effect by soil treatment (Table 19, symbol O); format: in vivo, lambsquarters (Chenopodium album); conditions: amount of applied herbicide 320 g/ha
Method in brief: as §3

Chinese sprangletop = assay: Test Example 3: herbicidal effect by foliage application, Wagner pot (Table 18, symbol D); format: in vivo, chinese sprangletop (Leptochloa chinensis); conditions: 320 g/ha
Method in brief: as §2

wild oat [8] = assay: Test Example 4: herbicidal effect by soil treatment (Table 19, symbol I); format: in vivo, wild oat (Avena fatua); conditions: amount of applied herbicide 320 g/ha
Method in brief: as §3

barnyard grass [9] = assay: Test Example 3: herbicidal effect by foliage application, Wagner pot (Table 18, symbol H); format: in vivo, barnyard grass (Echinochloa crus-galli); conditions: 320 g/ha
Method in brief: as §2

chickweed [10] = assay: Test Example 4: herbicidal effect by soil treatment (Table 19, symbol P); format: in vivo, common chickweed (Stellaria media); conditions: amount of applied herbicide 320 g/ha
Method in brief: as §3

velvetleaf [11] = assay: Test Example 5: herbicidal effect by foliage application, plastic box (Table 20, symbol M); format: in vivo, velvetleaf (Abutilon theophrasti); conditions: foliage application, 320 g/ha, evaluated three weeks after application
Method in brief: as §1

southern crabgrass [12] = assay: Test Example 5: herbicidal effect by foliage application, plastic box (Table 20, symbol F); format: in vivo, southern crabgrass (Digitaria ciliaris); conditions: foliage application, 320 g/ha, evaluated three weeks after application
Method in brief: as §1

Italian ryegrass [13] = assay: Test Example 4: herbicidal effect by soil treatment (Table 19, symbol K); format: in vivo, Italian ryegrass (Lolium multiflorum); conditions: amount of applied herbicide 320 g/ha
Method in brief: as §3

redroot pigweed [14] = assay: Test Example 4: herbicidal effect by soil treatment (Table 19, symbol N); format: in vivo, redroot pigweed (Amaranthus retroflexus); conditions: amount of applied herbicide 320 g/ha
Method in brief: as §3

late watergrass = assay: Test Example 2: herbicidal activity, application during weed generation under submerged conditions (Table 17, symbol A); format: in vivo, late watergrass (Echinochloa oryzicola); conditions: AAH 320 g/ha; application during weed generation, submerged conditions
Method in brief: as §4

velvetleaf [15] = assay: Test Example 4: herbicidal effect by soil treatment (Table 19, symbol M); format: in vivo, velvetleaf (Abutilon theophrasti); conditions: amount of applied herbicide 320 g/ha
Method in brief: as §3

wild oat [16] = assay: Test Example 5: herbicidal effect by foliage application, plastic box (Table 20, symbol I); format: in vivo, wild oat (Avena fatua); conditions: foliage application, 320 g/ha, evaluated three weeks after application
Method in brief: as §1

lambsquarters [17] = assay: Test Example 5: herbicidal effect by foliage application, plastic box (Table 20, symbol O); format: in vivo, lambsquarters (Chenopodium album); conditions: foliage application, 320 g/ha, evaluated three weeks after application
Method in brief: as §1

green foxtail [18] = assay: Test Example 5: herbicidal effect by foliage application, plastic box (Table 20, symbol G); format: in vivo, green foxtail (Setaria viridis); conditions: foliage application, 320 g/ha, evaluated three weeks after application
Method in brief: as §1

southern crabgrass [19] = assay: Test Example 4: herbicidal effect by soil treatment (Table 19, symbol F); format: in vivo, southern crabgrass (Digitaria ciliaris); conditions: amount of applied herbicide 320 g/ha
Method in brief: as §3

barnyard grass [20] = assay: Test Example 5: herbicidal effect by foliage application, plastic box (Table 20, symbol H); format: in vivo, barnyard grass (Echinochloa crus-galli); conditions: foliage application, 320 g/ha, evaluated three weeks after application
Method in brief: as §1

Italian ryegrass [21] = assay: Test Example 5: herbicidal effect by foliage application, plastic box (Table 20, symbol K); format: in vivo, Italian ryegrass (Lolium multiflorum); conditions: foliage application, 320 g/ha, evaluated three weeks after application
Method in brief: as §1

green foxtail [22] = assay: Test Example 4: herbicidal effect by soil treatment (Table 19, symbol G); format: in vivo, green foxtail (Setaria viridis); conditions: amount of applied herbicide 320 g/ha
Method in brief: as §3

blackgrass [23] = assay: Test Example 4: herbicidal effect by soil treatment (Table 19, symbol J); format: in vivo, blackgrass (Alopecurus myosuroides); conditions: amount of applied herbicide 320 g/ha
Method in brief: as §3

Japanese bulrush = assay: Test Example 2: herbicidal activity, application during weed generation under submerged conditions (Table 17, symbol B); format: in vivo, Japanese bulrush (Schoenoplectus juncoides); conditions: AAH 320 g/ha; application during weed generation, submerged conditions
Method in brief: as §4

false cleavers [24] = assay: Test Example 5: herbicidal effect by foliage application, plastic box (Table 20, symbol Q); format: in vivo, false cleavers (Galium spurium); conditions: foliage application, 320 g/ha, evaluated three weeks after application
Method in brief: as §1

windgrass [25] = assay: Test Example 4: herbicidal effect by soil treatment (Table 19, symbol L); format: in vivo, windgrass (Apera spica-venti); conditions: amount of applied herbicide 320 g/ha
Method in brief: as §3

persian speedwell [26] = assay: Test Example 4: herbicidal effect by soil treatment (Table 19, symbol R); format: in vivo, Persian speedwell (Veronica persica); conditions: amount of applied herbicide 320 g/ha
Method in brief: as §3

windgrass [27] = assay: Test Example 5: herbicidal effect by foliage application, plastic box (Table 20, symbol L); format: in vivo, windgrass (Apera spica-venti); conditions: foliage application, 320 g/ha, evaluated three weeks after application
Method in brief: as §1

CCCC(=O)Oc1c(C)nn(C)c(=O)c1-c1c(-c2ccc(OC)cc2)sc2ccc(Cl)cc12 [2-104]
herbicidal effect on P: chickweed (chickweed [1]): 5 (Herbicidal rate of 90% or more (almost completely withered))
herbicidal effect on E (rice flat sedge), rating 0-5 (rice flat sedge): 5 (Herbicidal rate of 90% or more (almost completely withered))
herbicidal effect on J: blackgrass (blackgrass [2]): 0 (Herbicidal rate of 5% or less (almost no effect))
herbicidal effect on N: redroot pigweed (redroot pigweed [3]): 3 (Herbicidal rate of 40% or more and less than 70%)
Q: false cleavers, herbicidal effect rating (false cleavers [4]): 0 (Herbicidal rate of 5% or less (almost no effect))
H: barnyard grass, herbicidal effect rating (barnyard grass [5]): 0 (Herbicidal rate of 5% or less (almost no effect))
herbicidal effect on R: persian speedwell (persian speedwell [6]): 5 (Herbicidal rate of 90% or more (almost completely withered))
herbicidal effect rating, C: oval-leafed pondweed (oval-leafed pondweed): 2 (Herbicidal rate of 20% or more and less than 40%)
O: lambsquarters, herbicidal effect rating (lambsquarters [7]): 3 (Herbicidal rate of 40% or more and less than 70%)
herbicidal effect on D (Chinese sprangletop), rating 0-5 (Chinese sprangletop): 0 (Herbicidal rate of 5% or less (almost no effect))
I: wild oat, herbicidal effect rating (wild oat [8]): 0 (Herbicidal rate of 5% or less (almost no effect))
herbicidal effect on H (barnyard grass), rating 0-5 (barnyard grass [9]): 3 (Herbicidal rate of 40% or more and less than 70%)
P: chickweed, herbicidal effect rating (chickweed [10]): 3 (Herbicidal rate of 40% or more and less than 70%)
herbicidal effect on M: velvetleaf (velvetleaf [11]): 3 (Herbicidal rate of 40% or more and less than 70%)
herbicidal effect on F: southern crabgrass (southern crabgrass [12]): 0 (Herbicidal rate of 5% or less (almost no effect))
K: Italian ryegrass, herbicidal effect rating (Italian ryegrass [13]): 0 (Herbicidal rate of 5% or less (almost no effect))
N: redroot pigweed, herbicidal effect rating (redroot pigweed [14]): 4 (Herbicidal rate of 70% or more and less than 90%)
herbicidal effect rating, A: late watergrass (late watergrass): 0 (Herbicidal rate of 5% or less (almost no effect))
M: velvetleaf, herbicidal effect rating (velvetleaf [15]): 3 (Herbicidal rate of 40% or more and less than 70%)
herbicidal effect on I: wild oat (wild oat [16]): 0 (Herbicidal rate of 5% or less (almost no effect))
herbicidal effect on O: lambsquarters (lambsquarters [17]): 2 (Herbicidal rate of 20% or more and less than 40%)
herbicidal effect on G: green foxtail (green foxtail [18]): 0 (Herbicidal rate of 5% or less (almost no effect))
F: southern crabgrass, herbicidal effect rating (southern crabgrass [19]): 0 (Herbicidal rate of 5% or less (almost no effect))
herbicidal effect on H: barnyard grass (barnyard grass [20]): 0 (Herbicidal rate of 5% or less (almost no effect))
herbicidal effect on K: Italian ryegrass (Italian ryegrass [21]): 0 (Herbicidal rate of 5% or less (almost no effect))
G: green foxtail, herbicidal effect rating (green foxtail [22]): 0 (Herbicidal rate of 5% or less (almost no effect))
J: blackgrass, herbicidal effect rating (blackgrass [23]): 0 (Herbicidal rate of 5% or less (almost no effect))
herbicidal effect rating, B: Japanese bulrush (Japanese bulrush): 0 (Herbicidal rate of 5% or less (almost no effect))
herbicidal effect on Q: false cleavers (false cleavers [24]): 1 (Herbicidal rate of 5% or more and less than 20%)
L: windgrass, herbicidal effect rating (windgrass [25]): 0 (Herbicidal rate of 5% or less (almost no effect))
R: persian speedwell, herbicidal effect rating (persian speedwell [26]): 5 (Herbicidal rate of 90% or more (almost completely withered))
herbicidal effect on L: windgrass (windgrass [27]): 0 (Herbicidal rate of 5% or less (almost no effect))
